Data published in article PMC10552892, “Ebselen oxide and derivatives are new allosteric HER2 inhibitors for HER2‐positive cancers” (Molecular Oncology, 2023).
“Also recorded” adds a separate entry of the source.

Key:
[1] = tested on: NCI-N87; test: Proliferation of NCI-N87 cells; assay type: cell-based, human; conditions: ebselen oxide 7–10 μM, AG1478 5 μM
Protocol: (§1) Fig. 3 Ebselen oxide inhibits HER2 activation and HER2‐dependent proliferation in gastric and ovarian HER2^+ cancer cells. (A) HER2‐positive NCI‐87 gastric cancer cells were treated with ebselen oxide (0–20 μM) for 24 h, lysed, and analyzed by western blot using anti‐pY1248‐HER2, HER2, and β‐tubulin antibodies. A representative western blot is shown out of 4 independent experiments. (B) HER2‐positive SKOV3 ovarian cancer cells were treated with ebselen oxide (0–10 μM) for 24 h, lysed, and analyzed by western blot using anti‐pY1248‐HER2, HER2, and ezrin antibodies. A western blot is shown (n = 1). (C, D) Proliferation curves of NCI‐N87 gastric (C) or SKOV3 ovarian (D) cancer cells treated with vehicle or 7–10 μM ebselen oxide measured by MTT assay. Data are mean ± SEM (n = 9–12) of three independent experiments.
Supplementary figure 4: NCI-N87 and SKOV3 cancer cell lines are addicted to the HER2 pathway
(A) NCI-N87 cells were treated (+) or not (-) with a non-specific HER2 inhibitor AG1478 (5 µM). Whole cell lysates were analyzed by western blot with pY1248 HER2, HER2 and pERK antibodies.
(B) SKOV3 cells were treated (+) or not (-) with a non-specific HER2 inhibitor AG1478 (5 µM). Whole cell lysates were analyzed by western blot with pY1248 HER2, HER2, pERK or beta-tubulin antibodies.
(C) Proliferation curves of NCI-N87 treated or not with AG1478 (5 µM). Data are mean ± sem (n=4-6). 2- […]

[2] = biological target: T1, HER2 (pY1248) in NCI-N87 (Homo sapiens, UniProt P04626); test: HER2 activation in NCI-N87 gastric cancer cells, western blot; assay type: cell-based
T1 construct: host or cells: NCI-N87
T1 sequence (P04626 23-1255): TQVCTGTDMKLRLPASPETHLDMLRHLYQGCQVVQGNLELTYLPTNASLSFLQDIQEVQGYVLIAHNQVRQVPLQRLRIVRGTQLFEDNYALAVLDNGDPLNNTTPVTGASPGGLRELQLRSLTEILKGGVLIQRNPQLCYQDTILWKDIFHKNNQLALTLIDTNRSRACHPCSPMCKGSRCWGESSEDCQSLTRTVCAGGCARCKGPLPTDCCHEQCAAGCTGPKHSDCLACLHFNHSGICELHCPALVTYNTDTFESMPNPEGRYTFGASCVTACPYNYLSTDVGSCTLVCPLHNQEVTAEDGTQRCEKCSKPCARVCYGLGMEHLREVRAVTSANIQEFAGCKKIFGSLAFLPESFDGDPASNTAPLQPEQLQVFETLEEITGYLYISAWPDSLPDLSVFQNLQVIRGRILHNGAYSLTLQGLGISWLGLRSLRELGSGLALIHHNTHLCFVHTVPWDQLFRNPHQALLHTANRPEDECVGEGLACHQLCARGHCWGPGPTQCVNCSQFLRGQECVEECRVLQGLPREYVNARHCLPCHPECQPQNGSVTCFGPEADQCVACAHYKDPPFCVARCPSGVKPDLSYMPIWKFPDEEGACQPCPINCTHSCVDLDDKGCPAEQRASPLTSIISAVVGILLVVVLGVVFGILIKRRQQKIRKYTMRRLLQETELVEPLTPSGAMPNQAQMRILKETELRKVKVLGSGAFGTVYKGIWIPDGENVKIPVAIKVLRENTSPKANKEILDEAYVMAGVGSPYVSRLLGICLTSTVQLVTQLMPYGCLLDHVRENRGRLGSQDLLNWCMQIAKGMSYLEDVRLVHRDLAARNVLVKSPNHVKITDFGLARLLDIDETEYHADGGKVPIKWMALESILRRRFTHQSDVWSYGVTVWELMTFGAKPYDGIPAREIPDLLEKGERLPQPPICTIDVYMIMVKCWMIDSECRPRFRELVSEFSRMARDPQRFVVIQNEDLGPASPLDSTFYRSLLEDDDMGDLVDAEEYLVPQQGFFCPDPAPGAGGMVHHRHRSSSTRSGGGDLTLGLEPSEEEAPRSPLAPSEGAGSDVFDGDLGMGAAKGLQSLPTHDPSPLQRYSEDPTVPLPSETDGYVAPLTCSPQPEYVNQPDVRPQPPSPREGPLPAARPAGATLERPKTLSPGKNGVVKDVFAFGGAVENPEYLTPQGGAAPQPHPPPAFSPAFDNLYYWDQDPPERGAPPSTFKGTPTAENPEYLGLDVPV
Protocol: (A-C) HER2-positive […] (SKBR3, A; NCI-N87, B; BT474, C) treated or not with Ebselen
indicated, were analyzed by western blot to evaluate HER2 activation status using antibodies directed
Proliferation was assessed by Incucyte during 4 days.

[3] = biological target: T2, HER2 (pY1248) in SKOV3 (Homo sapiens, UniProt P04626); test: HER2 activation in SKOV3 ovarian cancer cells, western blot; assay type: cell-based; conditions: ebselen oxide 0–10 μM 24 h, AG1478 5 μM
T2 construct: host or cells: SKOV3
T2 sequence (P04626 23-1255): as above
Protocol: Human bone marrow endothelial cells (HBMECs) kindly provided by Dr. B. Weksler (Weill Medical College of Cornell University, NY) were cultured as described previously. The human breast cancer cell lines [SKBR3 (RRID:CVCL_0033), BT474 (RRID:CVCL_0179), and MDA‐MB‐231 (RRID:CVCL_0062)], the human gastric [NCI‐87 (RRID:CVCL_1603)] and ovarian [SKOV3 (RRID:CVCL_0532)] cancer cell lines were obtained from the American Type Culture Collection (Manassas, VA) and were maintained in DMEM containing 10% FBS. All cell lines were cultured under 5% CO2 at 37 °C. HBMECs were transfected using Amaxa Inc nucleofector system (Kit V and U015 program). […]
as §1, with “A representative western blot is shown out of 4 independent experiments.” left out, “A western blot is shown (n = 1).” left out, “Data are mean ± SEM (n = 9–12) of three independent experiments.” left out

[4] = tested on: SKOV3; test: Proliferation of SKOV3 cells; assay type: cell-based, human; conditions: ebselen oxide 7–10 μM, AG1478 5 μM
[5] = tested on: HER2+ breast cancer cells; test: HER2-dependent (anchorage-dependent) proliferation, Table 1; assay type: cell-based, human
Text: Given the promising effects of ebselen oxide, we then evaluated several structurally related compounds in order to define the structural determinants essential for HER2 binding and inhibition. […] These observations allowed us to define a pharmacophore of ebselen derivatives required for HER2 inhibition where atoms in position Y and R (shown in red in structure) can be modified as followed: Y is either a S or a Se=O and R is either H or Cl or Me but not OMe or CF3 (Table 1).

[6] = biological target: T3, JMHER2/FERME interaction (biot-JMHER2 peptide and GST-FERME, N-terminal FERM domain of ezrin) (Homo sapiens, UniProt P04626); test: AlphaScreen competition of HER2 juxtamembrane peptide / ezrin FERM domain interaction; assay type: binding; conditions: for Inhibition of HER2-FERME interaction, %: compound 0–50 μM, biot-JMHER2 5 nM; for EC50: read-out: EC50, μM (inhibition of HER2-FERME interaction); for Competition with HER2/FERM interaction / binding affinity for JMHER2: compared to ebselen oxide
T3 construct: purchased Proteogenix
Protocol: Biotinylated peptide derived from HER2 cytosolic juxtamembrane region (JMHER2, […] ) has been synthesized by Proteogenix (Schiltigheim, France). The binding reaction was described previously. Briefly, white 384‐well Optiplates (PerkinElmer, Whalham, MA, USA) were used to prepare GST‐FERME and biotinylated peptide in a binding buffer (PBS, pH 7.4, 5 mM MgCl2, and 0.02% CHAPS). GST‐FERME was incubated with biotinylated‐HER2 for 30 min at room temperature. AlphaScreen® Streptavidin Donor beads (20 μg·mL^−1) and Glutathione AlphaLISA® Acceptor Beads (20 μg·mL^−1) were added to the wells for overnight incubation in the dark and at room temperature. Light signal was detected with the EnVision® multilabel plate reader (PerkinElmer).
Ebselen came out as an interesting hit. Ebselen is a synthetic organoselenium compound with the anti‐inflammatory and antioxidant property that has been evaluated in clinical trials for ischemic stroke and acute hearing loss. However, in vivo, ebselen rapidly reacts with peroxynitrite to form ebselen oxide. […] In addition, using surface plasmon resonance (SPR), we confirmed that both compounds could directly bind to JMHER2 (Fig. 1E,F). […] The slight decrease in HER2 expression was not significant. To examine whether HER2 inhibition by ebselen oxide was dependent on JMHER2/FERME interaction, we transfected HBMEC cells with a previously described glycoprotein D‐tagged HER2 form mutated on the critical amino acids involved in ERM binding (gD‐HER2‐EBM*).

[7] = biological target: T4, HER2 (pY1248) in SKBR3 (Homo sapiens, UniProt P04626); test: HER2 activation (pY1248-HER2) in SKBR3 cells, western/dot blot; assay type: cell-based; set-up: Inhibition of HER2 activation / HER2 inhibition, %: concentration or dose not given beside the values; conditions: for Inhibition of HER2 activation/activity: HER2+ breast cancer cells (SKBR3 in Fig. S1); for HER2 inhibition, % / EC50: Table 1, HER2+ breast cancer cells (ebselen oxide value equals SKBR3 48 h); for EC50: read-out: EC50, μM (HER2 inhibition)
T4 construct: host or cells: SKBR3
T4 sequence (P04626 23-1255): as above

[8] = set-up: method as in PMID 23299882; conditions: cited from earlier work
[9] = set-up: method as in PMID 11546910; conditions: after intravenous injection; cited from earlier work
[10] = set-up: method as in PMID 34299505; conditions: whatever the administered doses; cited from earlier work
[11] = biological target: T5, JMHER2 (peptide derived from the cytosolic juxtamembrane sequence of HER2) (Homo sapiens, UniProt P04626); test: Surface plasmon resonance binding to immobilized HER2 juxtamembrane peptide; conditions: analyte 5 or 10 μM, 60 s injection
T5 construct: purchased Proteogenix
Protocol: Interaction was performed on a BIAcore T200 instrument BIAcore (Cytiva Life Sciences, Marlborough, MA, USA); GE Healthcare (Little Chalfont, UK). […] Ebselen or ebselen oxide was used as an analyte and injected at 5 or 10 μM at a flow rate of 25 μL·min^−1 for 60 s.

[12] = tested on: main protease of SARS‐CoV‐2; set-up: method as in PMID 33120196; conditions: cited from earlier work
[13] = tested on: SKBR3; test: Incucyte proliferation, single agents and combinations, SKBR3; assay type: cell-based; conditions: Homo sapiens, SK-BR-3, 96 h; read-out: Reduction/inhibition of cell proliferation
Protocol: (§2) (A–C) Proliferation curves of HER2‐positive (SKBR3, A; BT474, B; NCI‐N87, C) cancer cell lines treated or not with ebselen oxide (10 μM), lapatinib (10–1000 nM), or combination of these agents, as indicated. Proliferation was assessed overtime by Incucyte during 4 days. Data are mean ± SD (n = 8–12) of a representative experiment out of 4 (A), 3 (B), or 2 (C) independent experiments. […] Proliferation was assessed by Incucyte during 4 days. […] Scale bars are […].

[14] = tested on: BT474; test: Incucyte proliferation, single agents and combinations, BT474; assay type: cell-based; conditions: Homo sapiens, BT-474, 96 h; read-out: Reduction/inhibition of cell proliferation
Protocol: as §2

[15] = tested on: NCI-N87; test: Incucyte proliferation, single agents and combinations, NCI-N87; assay type: cell-based; conditions: Homo sapiens, NCI-N87, 96 h; read-out: Reduction/inhibition of cell proliferation
Protocol: as §2

[16] = tested on: NCI-N87; test: Anchorage-independent growth (spheroid assay, ULA plates), NCI-N87; assay type: cell-based, human; conditions: ebselen oxide 10 μM, lapatinib 10 nM, trastuzumab 10 μg·mL−1, alone or combined

Structure (SMILES) | Inhibition of HER2-FERME interaction, % ([6]; AlphaScreen, 20 h) [%] | EC50 ([6]; AlphaScreen, 20 h) [µM] | Competition with HER2/FERM interaction / binding affinity for JMHER2 [6] | Inhibition of HER2 activation/activity [7] | HER2 inhibition, % [7] [%] | Effect on proliferation of HER2+ breast cancer cells [5] | EC50 [7] [µM] | other results
COc1cc2ncnc(Nc3cccc(Cl)c3)c2cc1OC [AG1478, Tyrphostin AG1478, reference compound] | – | – | – | – | – | – | – | Effect on proliferation [1]: decrease; Effect on HER2 activation ([2]; ebselen oxide 0–20 μM 24 h, AG1478 5 μM): decrease; Effect on HER2 activation [3]: decrease; Effect on proliferation [4]: decrease
Cc1ccc(-n2sc3ccccc3c2=O)cc1 [Analog 1, 2‐(4‐methylphenyl)‐1,2‐benzisothiazol‐3(2H)‐one] | 45.0 | 0.716 | competed | inhibited | 65.0 | reduced | 39.8 | –
O=c1c2ccccc2sn1-c1ccc(C(F)(F)F)cc1 [Analog 7, 2‐[4‐(trifluoromethyl)phenyl]‐1,2‐benzothiazol‐3‐one] | 100 | 97 | drastically reduced | – | – | – | – | –
O=c1c2ccccc2[se]n1-c1ccccc1 [Ebselen] | – | 0.044 | – | poorly inhibited; also recorded: did not inhibit | 14.4 | – | 51.3 | IC50 ([6]; AlphaScreen, 20 h): 44 nM; Blood–brain barrier permeation [8]: blood–brain barrier permeant; Half-life [9]: 1 to 3 h; Time to maximum serum concentration [9]: 1 h; Tolerability in vivo [10]: always well tolerated; Direct binding to JMHER2 (SPR) [11]: directly bind; Inhibition of the main protease of SARS-CoV-2 [12]: highly active
CS(=O)(=O)CCNCc1ccc(-c2ccc3ncnc(Nc4ccc(OCc5cccc(F)c5)c(Cl)c4)c3c2)o1 [lapatinib, Lapatinib ditosylate, reference compound] | – | – | – | – | – | – | – | inhibition at 0.01 µM [13]: 39%; Effect on HER2 activation, single agents and combination ([2]; ebselen oxide 10 μM, lapatinib 10 nM): partially decreased; inhibition at 0.01 µM [14]: 18%; inhibition at 0.01 µM [15]: 53%; Reduction of anchorage-independent growth (spheroid assay) [16]: 35%; Effect on HER2 activation, single agents and combination ([7]; SKBR3, ebselen oxide 10 μM, lapatinib 10 nM): partially decreased

More lines, main results first:

Inhibition of HER2-FERME interaction, % ([6]; AlphaScreen, 20 h) [%] | EC50 ([6]; AlphaScreen, 20 h) [µM] | Competition with HER2/FERM interaction / binding affinity for JMHER2 [6] | Inhibition of HER2 activation/activity [7] | HER2 inhibition, % [7] [%] | Structure (SMILES) | Effect on proliferation of HER2+ breast cancer cells [5] | EC50 [7] [µM] | other results
40.4 | 1.08 | competed | inhibited | 75.4 | O=c1c2ccccc2sn1-c1ccc(Cl)cc1 [Analog 2, 2‐(4‐chlorophenyl)‐1,2‐benzisothiazol‐3(2H)‐one] | reduced | 41.7 | –
47.3 | 0.003 | greater binding affinity | no or low inhibition | 0.0 | O=C1c2ccccc2C(=O)N1c1ccccc1 [Analog 4, N‐phenylphtalimide] | no or low inhibition | – | –
49.0 | 0.255 | greater binding affinity | no or low inhibition | 16.3 | CC(C)c1ccc(N2Cc3ccccc3C2=O)cc1 [Analog 5, 2‐(4‐isopropyl phenyl)‐1‐isoindolinone] | no or low inhibition | 2 | –
43.6 | 2.53 | – | no or low inhibition | 0.2 | Cc1ccc(-n2c(=O)c3ccccc3[s+]2[O-])cc1 (centres unmarked) [Analog 6, 2‐(4‐Methylphenyl)‐1‐oxo‐1,2‐benzothiazol‐3‐one] | no or low inhibition | – | –
100 | 95.1 | drastically reduced | – | – | O=c1c2ccccc2[s+]([O-])n1-c1ccc(Cl)cc1 (centres unmarked) [Analog 8, 2‐(4‐chlorophenyl)‐1‐oxo‐1,2‐benzothiazol‐3‐one] | – | – | –
